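Cells were grown in 96-well plates and exposed to each compound for 48 hours at five concentrations; endpoints were interpolated linearly between bracketing concentrations, or set to the highest concentration if not reached. At the TGI there is no net growth.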
Columns and labels:
Assay in all cases: NCI anticancer screen, dose series, 48 h
DMS 114 small cell lung = system: DMS 114 small cell lung
OVCAR-3 ovarian = system: OVCAR-3 ovarian
CAKI-1 renal = system: CAKI-1 renal
NCI-H23 lung = system: NCI-H23 lung
T-47D breast = system: T-47D breast
MDA-MB-435 = system: MDA-MB-435
SK-MEL-2 melanoma = system: SK-MEL-2 melanoma
M14 melanoma = system: M14 melanoma
SK-MEL-5 melanoma = system: SK-MEL-5 melanoma
ACHN renal = system: ACHN renal
BT-549 breast = system: BT-549 breast
SF-268 CNS = system: SF-268 CNS
RPMI-8226 leukemia = system: RPMI-8226 leukemia
DMS 273 small cell lung = system: DMS 273 small cell lung
KM20L2 colon = system: KM20L2 colon
SF-539 CNS = system: SF-539 CNS
MCF7 breast = system: MCF7 breast
UACC-257 melanoma = system: UACC-257 melanoma
UO-31 renal = system: UO-31 renal
SK-MEL-28 melanoma = system: SK-MEL-28 melanoma
SF-295 CNS = system: SF-295 CNS
SN12C renal = system: SN12C renal
MALME-3M melanoma = system: MALME-3M melanoma
KM12 colon = system: KM12 colon
786-0 renal = system: 786-0 renal
CCRF-CEM leukemia = system: CCRF-CEM leukemia
HOP-18 NSCLC = system: HOP-18 NSCLC
SR leukemia = system: SR leukemia
HL-60(TB) leukemia = system: HL-60(TB) leukemia
NCI-H226 lung = system: NCI-H226 lung
HS 578T breast = system: HS 578T breast
SNB-78 CNS = system: SNB-78 CNS
SK-OV-3 ovarian = system: SK-OV-3 ovarian
HOP-62 NSCLC = system: HOP-62 NSCLC
SNB-75 CNS = system: SNB-75 CNS
U251 CNS = system: U251 CNS
MOLT-4 leukemia = system: MOLT-4 leukemia
NCI/ADR-RES ovarian = system: NCI/ADR-RES ovarian
DU-145 prostate = system: DU-145 prostate
MDA-MB-231 breast = system: MDA-MB-231 breast
EKVX NSCLC = system: EKVX NSCLC
SNB-19 CNS = system: SNB-19 CNS
PC-3 prostate = system: PC-3 prostate
MDA-N = system: MDA-N
OVCAR-4 ovarian = system: OVCAR-4 ovarian
HT29 colon = system: HT29 colon
HCT-116 colon = system: HCT-116 colon
IGROV1 ovarian = system: IGROV1 ovarian
NCI-H522 lung = system: NCI-H522 lung
M19-MEL melanoma = system: M19-MEL melanoma
COLO 205 colon = system: COLO 205 colon
OVCAR-5 ovarian = system: OVCAR-5 ovarian
HCT-15 colon = system: HCT-15 colon
UACC-62 melanoma = system: UACC-62 melanoma
TK-10 renal = system: TK-10 renal
OVCAR-8 ovarian = system: OVCAR-8 ovarian
HCC-2998 colon = system: HCC-2998 colon
SW-620 colon = system: SW-620 colon
LOX IMVI melanoma = system: LOX IMVI melanoma
HOP-92 NSCLC = system: HOP-92 NSCLC
A498 renal = system: A498 renal
RXF 393 renal = system: RXF 393 renal
NCI-H460 lung = system: NCI-H460 lung
DLD-1 colon = system: DLD-1 colon
A549 NSCLC = system: A549 NSCLC
RXF-631 renal = system: RXF-631 renal
LXFL 529 NSCLC = system: LXFL 529 NSCLC
K-562 leukemia = system: K-562 leukemia
XF 498 CNS = system: XF 498 CNS

For `CN(C)CC1CCCC(CN2CCCCC2)C1=O` (configuration not stated), the TGI (DMS 114 small cell lung) was over 23.4 µM, the TGI (OVCAR-3 ovarian) was 17.1 µM and the TGI (CAKI-1 renal) was 3.73 µM. The TGI (NCI-H23 lung) was 35.8 µM, the TGI (T-47D breast) was 4.85 µM and the TGI (MDA-MB-435) was 31.1 µM. For the same compound, the TGI (SK-MEL-2 melanoma) was 31.1 µM, the TGI (M14 melanoma) was 18.7 µM and the TGI (SK-MEL-5 melanoma) was 33.5 µM. It also gave a TGI (ACHN renal) of 13.6 µM, a TGI (BT-549 breast) of 28.7 µM and a TGI (SF-268 CNS) of 40.2 µM. The TGI (RPMI-8226 leukemia) was 1.29 µM, the TGI (DMS 273 small cell lung) was 54.9 µM and the TGI (KM20L2 colon) was 41.6 µM. It also gave a TGI (SF-539 CNS) of 33.6 µM, a TGI (MCF7 breast) of 2.62 µM and a TGI (UACC-257 melanoma) of 30.8 µM. It also gave a TGI (UO-31 renal) of 26.7 µM, a TGI (SK-MEL-28 melanoma) of 27.6 µM and a TGI (SF-295 CNS) of over 100 µM. For the same compound, the TGI (SN12C renal) was 16.8 µM, the TGI (MALME-3M melanoma) was 6.5 µM and the TGI (KM12 colon) was 44.9 µM. For the same compound, the TGI (786-0 renal) was 6.07 µM, the TGI (CCRF-CEM leukemia) was 5.48 µM and the TGI (HOP-18 NSCLC) was 4.71 µM. For the same compound, the TGI (SR leukemia) was over 100 µM, the TGI (HL-60(TB) leukemia) was 11.8 µM and the TGI (NCI-H226 lung) was 43.1 µM. For the same compound, the TGI (HS 578T breast) was 59 µM, the TGI (SNB-78 CNS) was 23.9 µM and the TGI (SK-OV-3 ovarian) was over 100 µM. The TGI (HOP-62 NSCLC) was over 100 µM, the TGI (SNB-75 CNS) was 43.2 µM and the TGI (U251 CNS) was over 66.9 µM. The TGI (MOLT-4 leukemia) was 12.5 µM, the TGI (NCI/ADR-RES ovarian) was 14.6 µM and the TGI (DU-145 prostate) was 32.5 µM. It also gave a TGI (MDA-MB-231 breast) of 28.3 µM, a TGI (EKVX NSCLC) of 28.7 µM and a TGI (SNB-19 CNS) of over 100 µM. The TGI (PC-3 prostate) was 29 µM, the TGI (MDA-N) was 27.5 µM and the TGI (OVCAR-4 ovarian) was 7.75 µM. It also gave a TGI (HT29 colon) of 25.1 µM, a TGI (HCT-116 colon) of 7.53 µM and a TGI (IGROV1 ovarian) of 35.5 µM. It also gave a TGI (NCI-H522 lung) of 0.204 µM, a TGI (M19-MEL melanoma) of 34.7 µM and a TGI (COLO 205 colon) of 7.03 µM. For the same compound, the TGI (OVCAR-5 ovarian) was 46.5 µM, the TGI (HCT-15 colon) was 27.9 µM and the TGI (UACC-62 melanoma) was 33.5 µM. It also gave a TGI (TK-10 renal) of 21.3 µM, a TGI (OVCAR-8 ovarian) of 31.5 µM and a TGI (HCC-2998 colon) of 33.4 µM. It also gave a TGI (SW-620 colon) of 3.74 µM, a TGI (LOX IMVI melanoma) of 18.3 µM and a TGI (HOP-92 NSCLC) of 3.8 µM. It also gave a TGI (A498 renal) of over 71.3 µM, a TGI (RXF 393 renal) of 26.6 µM and a TGI (NCI-H460 lung) of over 68.6 µM. It also gave a TGI (DLD-1 colon) of 8.92 µM and a TGI (A549 NSCLC) of over 76.4 µM.
`CCCCCCCCCCCCCCCCOCC(CN(C)CCN(C)C)OCCCCCCCCCCCCCCCC` (configuration not stated) gave a TGI (DMS 114 small cell lung) of over 100 µM, a TGI (OVCAR-3 ovarian) of over 100 µM and a TGI (CAKI-1 renal) of over 100 µM. For the same compound, the TGI (NCI-H23 lung) was over 100 µM, the TGI (SK-MEL-2 melanoma) was over 100 µM and the TGI (M14 melanoma) was over 100 µM. For the same compound, the TGI (SK-MEL-5 melanoma) was over 100 µM, the TGI (ACHN renal) was over 100 µM and the TGI (SF-268 CNS) was over 100 µM. The TGI (RPMI-8226 leukemia) was over 100 µM, the TGI (DMS 273 small cell lung) was over 100 µM and the TGI (KM20L2 colon) was over 100 µM. The TGI (UACC-257 melanoma) was over 100 µM, the TGI (UO-31 renal) was over 100 µM and the TGI (SK-MEL-28 melanoma) was over 100 µM. For the same compound, the TGI (SF-295 CNS) was over 100 µM, the TGI (SN12C renal) was over 100 µM and the TGI (MALME-3M melanoma) was over 100 µM. For the same compound, the TGI (KM12 colon) was over 100 µM, the TGI (786-0 renal) was over 100 µM and the TGI (CCRF-CEM leukemia) was over 100 µM. For the same compound, the TGI (HOP-18 NSCLC) was over 100 µM, the TGI (RXF-631 renal) was over 100 µM and the TGI (SR leukemia) was over 100 µM. It also gave a TGI (HL-60(TB) leukemia) of over 100 µM, a TGI (NCI-H226 lung) of over 100 µM and a TGI (SNB-78 CNS) of over 100 µM. The TGI (LXFL 529 NSCLC) was over 100 µM, the TGI (SK-OV-3 ovarian) was over 100 µM and the TGI (HOP-62 NSCLC) was over 100 µM. It also gave a TGI (SNB-75 CNS) of over 100 µM, a TGI (U251 CNS) of over 100 µM and a TGI (MOLT-4 leukemia) of over 100 µM. For the same compound, the TGI (EKVX NSCLC) was over 100 µM, the TGI (SNB-19 CNS) was over 100 µM and the TGI (K-562 leukemia) was over 100 µM. For the same compound, the TGI (OVCAR-4 ovarian) was over 100 µM, the TGI (HT29 colon) was over 100 µM and the TGI (HCT-116 colon) was over 100 µM. The TGI (IGROV1 ovarian) was over 100 µM, the TGI (NCI-H522 lung) was over 100 µM and the TGI (M19-MEL melanoma) was over 100 µM. For the same compound, the TGI (COLO 205 colon) was over 100 µM, the TGI (OVCAR-5 ovarian) was over 100 µM and the TGI (HCT-15 colon) was over 100 µM. The TGI (UACC-62 melanoma) was over 100 µM, the TGI (TK-10 renal) was over 100 µM and the TGI (OVCAR-8 ovarian) was over 100 µM. It also gave a TGI (HCC-2998 colon) of over 100 µM, a TGI (SW-620 colon) of over 100 µM and a TGI (LOX IMVI melanoma) of over 100 µM. The TGI (HOP-92 NSCLC) was over 100 µM, the TGI (A498 renal) was over 100 µM and the TGI (RXF 393 renal) was over 100 µM. For the same compound, the TGI (NCI-H460 lung) was over 100 µM, the TGI (DLD-1 colon) was over 100 µM and the TGI (A549 NSCLC) was over 100 µM.
For `O=C1OC(c2ccccc2)=N/C1=C\c1ccc2ccccc2c1`, the TGI (DMS 114 small cell lung) was over 100 µM, the TGI (OVCAR-3 ovarian) was over 100 µM and the TGI (CAKI-1 renal) was over 100 µM. It also gave a TGI (NCI-H23 lung) of over 100 µM, a TGI (SK-MEL-2 melanoma) of over 100 µM and a TGI (M14 melanoma) of over 100 µM. For the same compound, the TGI (SK-MEL-5 melanoma) was over 100 µM, the TGI (ACHN renal) was over 100 µM and the TGI (SF-268 CNS) was over 100 µM. The TGI (RPMI-8226 leukemia) was over 100 µM, the TGI (KM20L2 colon) was over 100 µM and the TGI (SF-539 CNS) was over 100 µM. It also gave a TGI (UACC-257 melanoma) of over 100 µM, a TGI (UO-31 renal) of over 100 µM and a TGI (SK-MEL-28 melanoma) of over 100 µM. The TGI (SN12C renal) was over 100 µM, the TGI (MALME-3M melanoma) was over 100 µM and the TGI (KM12 colon) was over 100 µM. For the same compound, the TGI (786-0 renal) was over 100 µM, the TGI (CCRF-CEM leukemia) was over 100 µM and the TGI (HOP-18 NSCLC) was over 100 µM. It also gave a TGI (SNB-78 CNS) of over 100 µM, a TGI (SK-OV-3 ovarian) of over 100 µM and a TGI (SNB-75 CNS) of over 100 µM. For the same compound, the TGI (U251 CNS) was over 100 µM, the TGI (MOLT-4 leukemia) was over 100 µM and the TGI (EKVX NSCLC) was over 100 µM. The TGI (SNB-19 CNS) was over 100 µM, the TGI (K-562 leukemia) was over 100 µM and the TGI (OVCAR-4 ovarian) was over 100 µM. For the same compound, the TGI (HT29 colon) was over 100 µM, the TGI (HCT-116 colon) was over 100 µM and the TGI (IGROV1 ovarian) was over 100 µM. For the same compound, the TGI (NCI-H522 lung) was over 100 µM, the TGI (M19-MEL melanoma) was over 100 µM and the TGI (COLO 205 colon) was over 100 µM. The TGI (OVCAR-5 ovarian) was over 100 µM, the TGI (HCT-15 colon) was over 100 µM and the TGI (UACC-62 melanoma) was over 100 µM. It also gave a TGI (TK-10 renal) of over 100 µM, a TGI (OVCAR-8 ovarian) of over 100 µM and a TGI (SW-620 colon) of over 100 µM. It also gave a TGI (LOX IMVI melanoma) of over 100 µM, a TGI (HOP-92 NSCLC) of over 100 µM and a TGI (XF 498 CNS) of over 100 µM. The TGI (A498 renal) was over 100 µM, the TGI (RXF 393 renal) was over 100 µM and the TGI (NCI-H460 lung) was over 100 µM. It also gave a TGI (DLD-1 colon) of over 100 µM and a TGI (A549 NSCLC) of over 100 µM.

Reference: PubChem BioAssay (NCI)
